For orientation: melting point means the temperature, or range, at which the solid turns liquid.

`CC(=O)NCCN(C(=O)N1CCN(C(c2ccccc2)c2ccccc2)C[C@@H]1C(C)C)C1CCN(C(C)=O)CC1` [Example 16] had a melting point of 90 to 92 °C.

The values above are taken from patent US7476681B2, “17β-hydroxysteroid dehydrogenase type 3 inhibitors for the treatment of androgen dependent diseases” (Schering Corporation, priority 2002, dated 2009).
